Structures are written as SMILES.

Chain of HCV RdRp (NS5B) (P26663 whole entry, looked up): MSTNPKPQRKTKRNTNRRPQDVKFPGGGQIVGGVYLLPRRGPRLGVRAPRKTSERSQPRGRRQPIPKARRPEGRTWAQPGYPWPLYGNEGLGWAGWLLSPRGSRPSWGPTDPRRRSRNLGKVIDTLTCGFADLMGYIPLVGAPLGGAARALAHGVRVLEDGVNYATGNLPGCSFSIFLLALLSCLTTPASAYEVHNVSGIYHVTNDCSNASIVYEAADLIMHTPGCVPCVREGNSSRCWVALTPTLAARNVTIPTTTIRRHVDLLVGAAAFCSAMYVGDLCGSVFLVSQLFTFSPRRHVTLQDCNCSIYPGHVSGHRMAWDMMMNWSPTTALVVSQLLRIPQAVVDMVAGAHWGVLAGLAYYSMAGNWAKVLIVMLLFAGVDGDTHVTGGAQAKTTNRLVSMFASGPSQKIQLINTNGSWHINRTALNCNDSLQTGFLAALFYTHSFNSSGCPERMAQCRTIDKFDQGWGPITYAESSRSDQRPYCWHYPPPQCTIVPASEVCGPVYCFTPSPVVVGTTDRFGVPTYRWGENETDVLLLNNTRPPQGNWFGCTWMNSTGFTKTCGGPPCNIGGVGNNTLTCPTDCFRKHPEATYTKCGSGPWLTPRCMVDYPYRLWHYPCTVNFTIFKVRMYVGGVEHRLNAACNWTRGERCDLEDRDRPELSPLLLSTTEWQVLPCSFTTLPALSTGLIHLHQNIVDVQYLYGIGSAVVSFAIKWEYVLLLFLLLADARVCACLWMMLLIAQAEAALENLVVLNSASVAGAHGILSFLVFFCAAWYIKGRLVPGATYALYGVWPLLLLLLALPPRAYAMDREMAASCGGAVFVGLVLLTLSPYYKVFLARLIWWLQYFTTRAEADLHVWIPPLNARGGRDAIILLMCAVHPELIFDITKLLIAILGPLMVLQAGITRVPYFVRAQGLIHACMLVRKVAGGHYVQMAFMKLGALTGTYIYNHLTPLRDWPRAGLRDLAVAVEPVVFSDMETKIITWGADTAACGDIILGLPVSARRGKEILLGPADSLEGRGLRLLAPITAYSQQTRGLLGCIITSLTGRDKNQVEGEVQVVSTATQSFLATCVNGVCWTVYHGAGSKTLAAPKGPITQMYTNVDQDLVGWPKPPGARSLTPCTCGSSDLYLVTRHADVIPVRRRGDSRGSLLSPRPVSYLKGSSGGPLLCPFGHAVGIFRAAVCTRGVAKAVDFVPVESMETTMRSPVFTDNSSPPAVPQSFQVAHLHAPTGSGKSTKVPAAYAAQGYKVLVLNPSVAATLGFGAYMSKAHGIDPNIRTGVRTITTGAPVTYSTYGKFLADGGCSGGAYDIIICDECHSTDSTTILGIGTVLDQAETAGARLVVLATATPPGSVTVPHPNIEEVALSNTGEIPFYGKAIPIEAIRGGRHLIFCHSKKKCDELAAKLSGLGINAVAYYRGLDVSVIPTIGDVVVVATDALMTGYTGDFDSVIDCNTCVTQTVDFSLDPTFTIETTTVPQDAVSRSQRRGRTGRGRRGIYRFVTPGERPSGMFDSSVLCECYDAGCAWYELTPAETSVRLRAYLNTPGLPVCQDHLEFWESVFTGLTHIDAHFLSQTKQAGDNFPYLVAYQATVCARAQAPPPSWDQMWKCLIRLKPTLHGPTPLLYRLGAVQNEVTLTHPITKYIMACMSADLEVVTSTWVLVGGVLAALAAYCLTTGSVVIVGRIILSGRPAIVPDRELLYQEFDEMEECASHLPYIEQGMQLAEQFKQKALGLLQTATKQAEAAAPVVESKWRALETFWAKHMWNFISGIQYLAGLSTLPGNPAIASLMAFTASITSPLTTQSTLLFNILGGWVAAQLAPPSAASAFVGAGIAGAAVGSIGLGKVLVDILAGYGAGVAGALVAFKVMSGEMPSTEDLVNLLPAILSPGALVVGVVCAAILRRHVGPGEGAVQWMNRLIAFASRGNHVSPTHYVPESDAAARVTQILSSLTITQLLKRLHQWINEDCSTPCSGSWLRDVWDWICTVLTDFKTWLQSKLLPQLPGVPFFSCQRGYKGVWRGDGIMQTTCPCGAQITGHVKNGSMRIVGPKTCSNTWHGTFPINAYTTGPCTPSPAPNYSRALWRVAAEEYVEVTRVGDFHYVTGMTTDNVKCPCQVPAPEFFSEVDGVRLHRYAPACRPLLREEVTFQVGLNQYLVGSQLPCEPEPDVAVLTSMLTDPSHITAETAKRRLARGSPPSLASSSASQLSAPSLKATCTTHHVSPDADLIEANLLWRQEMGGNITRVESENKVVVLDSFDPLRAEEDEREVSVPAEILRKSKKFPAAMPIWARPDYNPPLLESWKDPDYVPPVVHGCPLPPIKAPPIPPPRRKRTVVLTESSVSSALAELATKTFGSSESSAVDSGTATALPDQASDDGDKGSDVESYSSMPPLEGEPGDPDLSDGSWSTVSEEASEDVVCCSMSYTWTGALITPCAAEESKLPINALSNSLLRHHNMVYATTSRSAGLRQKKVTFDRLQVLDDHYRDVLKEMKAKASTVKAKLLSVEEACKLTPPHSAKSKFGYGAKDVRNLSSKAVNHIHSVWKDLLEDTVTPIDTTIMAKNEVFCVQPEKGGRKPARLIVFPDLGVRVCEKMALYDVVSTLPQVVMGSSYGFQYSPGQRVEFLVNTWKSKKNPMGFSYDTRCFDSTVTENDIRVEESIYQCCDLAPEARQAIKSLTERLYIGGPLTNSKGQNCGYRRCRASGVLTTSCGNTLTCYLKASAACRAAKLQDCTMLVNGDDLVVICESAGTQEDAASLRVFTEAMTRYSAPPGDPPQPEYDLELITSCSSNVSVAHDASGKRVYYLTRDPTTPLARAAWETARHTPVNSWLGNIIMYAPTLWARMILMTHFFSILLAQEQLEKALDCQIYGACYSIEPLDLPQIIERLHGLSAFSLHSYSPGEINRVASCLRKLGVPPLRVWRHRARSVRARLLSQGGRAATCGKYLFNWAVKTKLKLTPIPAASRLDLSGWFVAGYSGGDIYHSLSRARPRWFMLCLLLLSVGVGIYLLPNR

This assay addresses HCV RdRp (NS5B) (UniProt P26663). The assay is classed as biochemical, hepatitis C virus.
One may read the IC50 as the concentration at which inhibition is half-maximal. The low end stands for greater potency in that assay, the high end for weaker potency in that assay. In turn, `COc1ccc(NC(=O)[C@H](CCCCN)NC(=O)OCC2c3ccccc3-c3ccccc32)cc1` [Compound 83, (S)-[5-AMINO-1-(4-METHOXY-PHENYLCARBAMOYL)-PENTYL]-CARBAMIC ACID 9H-FLUOREN-9-YLMETHYL ESTER] displayed an IC50 of 10 to 50 µM.
In turn, `CCOC(=O)C=Cc1ccc(NC(=O)[C@H](CCCCN)NC(=O)OCC2c3ccccc3-c3ccccc32)cc1` [Compound 59, (S)-3-{4-[6-AMINO-2-((9H-FLUOREN-9-YLMETHOXYCARBONYL)AMINO)-HEXANOYLAMINO]PHENYL}-ACRYLIC ACID ETHYL ESTER] yielded an IC50 of 10 to 50 µM.
With `Cc1ccc(NC(=O)[C@H](CCCCN)NC(=O)CNCc2ccccc2Cl)cc1` [Compound 347, (S)-6-AMINO-2-[2-(2-CHLORO-BENZYLAMINO)-ACETYLAMINO]-HEXANOIC ACID P-TOLYLAMIDE], the IC50 was greater than 50 µM.
Consider `O=C(CC1CNCCN1C(=O)NCc1ccccc1)Nc1ccc(C2CCCCC2)cc1` (stereo not drawn) [Compound 158, 2-[(4-CYCLOHEXYL-PHENYLCARBAMOYL)-METHYL]-PIPERAZINE-1-CARBOXYLIC ACID BENZYLAMIDE], for which the IC50 is 10 to 50 µM.
As to `Cc1ccc(NC(=O)[C@H](CCCN)NC(=O)Nc2ccc(OCc3ccccc3)cc2)cc1` [Compound 189, (S)-5-AMINO-2-[3-(4-BENZYLOXY-PHENYL)-UREIDO]-PENTANOIC ACID P-TOLYLAMIDE], the IC50 is greater than 50 µM.
Regarding `Cc1ccc(NC(=O)C(CCCCN)NC(=O)c2ccc(F)c3ccccc23)cc1` [Compound 64, (S)-4-FLUORO-NAPHTHALENE-1-CARBOXYLIC ACID (5-AMINO-1-P-TOLYLCARBAMOYL-PENTYL)-AMIDE], the half-maximal inhibitory concentration (IC50) was greater than 50 µM.
Take `CC(C)(C)OC(=O)NCC(=O)NCc1ccccc1NC(=O)CNC(=O)OCC1c2ccccc2-c2ccccc21` [Compound 325, ({2-[2-(9H-FLUOREN-9-YLMETHOXYCARBONYLAMINO)-ACETYLAMINO]-BENZYLCARBAMOYL}-METHYL)-CARBAMIC ACID TERT-BUTYL ESTER]: the IC50 was greater than 50 µM.
`NCCC[C@@H](NC(=O)OCC1c2ccccc2-c2ccccc21)C(=O)Nc1ccc(CN(C(=O)c2ccco2)C2CCCCC2)cc1` [Compound 16, (R)-[4-AMINO-1-(4-{[CYCLOHEXYL-(FURAN-2-CARBONYL)-AMINO]-METHYL}-PHENYLCARBAMOYL)-BUTYL]-CARBAMIC ACID 9H-FLUOREN-9-YLMETHYL ESTER] displayed an IC50 of less than 10 µM.
The compound `Cc1ccc(NC(=O)[C@H](CCCCN)NC(=O)CNc2cccc(Cl)c2)cc1` [Compound 362, (S)-6-AMINO-2-[2-(3-CHLORO-PHENYLAMINO)-ACETYLAMINO]-HEXANOIC ACID P-TOLYLAMIDE] displayed an IC50 greater than 50 µM.
On to `Cc1ccc(NC(=O)C2CC(O)CN2C(=O)OCC2c3ccccc3-c3ccccc32)cc1` [Compound 87, (4R,S)-4-HYDROXY-2-P-TOLYLCARBAMOYL-PYRROLIDINE-1-CARBOXYLIC ACID 9H-FLUOREN-9-YLMETHYL ESTER], for which the IC50 was greater than 50 µM.
As to `NCCCCCCNC(=O)C(NC(=O)Nc1ccc(OCc2ccccc2)cc1)c1ccccc1` [Compound 319, (S)-NR-(6-AMINO-HEXYL)-2-[3-(4-BENZYLOXY-PHENYL)-UREIDO]-2-PHENYL-ACETAMIDE], the IC50 is less than 10 µM.
Next, `Cc1ccc(NC(=O)C2(NC(=O)OCC3c4ccccc4-c4ccccc43)CCCNC2)cc1` (stereo not drawn) [Compound 109, (3-P-TOLYLCARBAMOYL-PIPERIDIN-3-YL)-CARBAMIC ACID 9H-FLUOREN-9-YLMETHYL ESTER]: greater than 50 µM; `NCCCC[C@H](NC(=O)Nc1ccc(OCc2ccccc2)cc1)C(=O)N1CCCCC1` [Compound 290, (S)-1-[5-AMINO-1-(PIPERIDINE-1-CARBONYL)-PENTYL]-3-(4-BENZYLOXY-PHENYL)-UREA]: greater than 50 µM; `Cc1ccc(NC(=O)C(CCCCN)NS(=O)(=O)c2cc(S(=O)(=O)c3ccccc3)cs2)cc1` [Compound 388, (S)-6-AMINO-2-(4-BENZENESULFONYL-THIOPHENE-2-SULFONYLAMINO)-HEXANOIC ACID P-TOLYLAMIDE]: greater than 50 µM.
Next, `NCCCCCCNC(=O)C(NC(=O)Nc1ccc(OCc2ccccc2)cc1)c1ccccc1` [Compound 320, (R)-NR-(6-AMINO-HEXYL)-2-[3-(4-BENZYLOXY-PHENYL)-UREIDO]-2-PHENYL-ACETAMIDE]: less than 10 µM; `NCCCC[C@H](NC(=O)Cn1cnc2c(NC(=O)c3ccccc3)ncnc21)C(=O)Nc1ccc(CN(C(=O)c2ccco2)C2CCCCC2)cc1` [Compound 46, (S)-FURAN-2-CARBOXYLIC ACID (4-{6-AMINO-2-[2-(6-BENZOYLAMINO-PURIN-9-YL)-ACETYLAMINO]-HEXANOYLAMINO}-BENZYL)-CYCLOHEXYL-AMIDE]: 10 to 50 µM.
The result for `Cc1ccc(NC(=O)C(Cc2ccc(O)cc2)NC(=O)OCC2c3ccccc3-c3ccccc32)cc1` [Compound 380, (R)-[2-(4-HYDROXY-PHENYL)-1-P-TOLYLCARBAMOYL-ETHYL]-CARBAMIC ACID 9H-FLUOREN-9-YLMETHYL ESTER] reads greater than 50 µM; that for `Cc1ccc(NC(=O)[C@H](CCCCN)NS(=O)(=O)c2ccsc2)cc1` [Compound 399, (S)-6-AMINO-2-(THIOPHENE-3-SULFONYLAMINO)-HEXANOIC ACID P-TOLYLAMIDE], greater than 50 µM; that for `NCCC[C@H](NC(=O)OCC1c2ccccc2-c2ccccc21)C(=O)Nc1ccc(C2CCCCC2)cc1` [Compound 200, (S)-[4-AMINO-1-(4-CYCLOHEXYL-PHENYLCARBAMOYL)-BUTYL]-CARBAMIC ACID 9H-FLUOREN-9-YLMETHYL ESTER], less than 10 µM.
For `NCCCC[C@H](NC(=O)Nc1ccc(OCc2ccccc2)cc1)C(=O)NC1CCCC1` [Compound 255, (S)-6-AMINO-2-[3-(4-BENZYLOXY-PHENYL)-UREIDO]-HEXANOIC ACID CYCLOPENTYLAMIDE], the IC50 was in the range of 10 to 50 µM.
The compound `NCCCC[C@H](NC(=O)Nc1ccc(OCc2ccccc2)cc1)C(=O)OCCN` [Compound 259, (S)-6-AMINO-2-[3-(4-BENZYLOXY-PHENYL)-UREIDO]-HEXANOIC ACID (2-AMINO-ETHYL)-ESTER] yielded an IC50 greater than 50 µM.
With `NCCCC[C@H](NC(=O)OCC1c2ccccc2-c2ccccc21)C(=O)Nc1ccc(C2CCCCC2)cc1` [Compound 107, (S)-[5-AMINO-1-(4-CYCLOHEXYL-PHENYLCARBAMOYL)-PENTYL]-CARBAMIC ACID 9H-FLUOREN-9-YLMETHYL ESTER], the IC50 was less than 10 µM.
In the case of `CCCCOc1ccc(NC(=O)N[C@@H](CCCCN)C(=O)Nc2ccc(C)cc2)cc1` [Compound 244, (S)-6-AMINO-2-[3-(4-BUTOXY-PHENYL)-UREIDO]-HEXANOIC ACID P-TOLYLAMIDE], the IC50 is greater than 50 µM.
The result for `Cc1cc2cc(NC(=O)[C@H](CCNC(=O)CN)NC(=O)Nc3ccc(OCc4ccccc4)cc3)ccc2[nH]1` [Compound 241, (S)-4-(2-AMINO-ACETYLAMINO)-2-[3-(4-BENZYLOXY-PHENYL)-UREIDO]-N-(2-METHYL-1H-INDOL-5-YL)-BUTYRAMIDE] reads less than 10 µM; that for `Cc1ccc(NC(=O)C(CCCCN)NC(=O)Nc2ccc(C(F)(F)F)cc2)cc1` [Compound 42, (S)-6-AMINO-2-[3-(4-TRIFLUOROMETHYL-PHENYL)-UREIDO]-HEXANOIC ACID P-TOLYLAMIDE], 10 to 50 µM; that for `O=C(CNC(=O)OCC1c2ccccc2-c2ccccc21)Nc1ccc(CN(C(=O)c2ccco2)C2CCCCC2)cc1` [Compound 18, [(4-{[CYCLOHEXYL-(FURAN-2-CARBONYL)-AMINO]-METHYL}-PHENYLCARBAMOYL)-METHYL]-CARBAMIC ACID 9H-FLUOREN-9-YLMETHYL ESTER], greater than 50 µM.
Next, `Cc1ccc(NC(=O)C(Cc2cccs2)NC(=O)OCC2c3ccccc3-c3ccccc32)cc1` [Compound 381, (S)-(2-THIOPHEN-2-YL-1-P-TOLYLCARBAMOYL-ETHYL)-CARBAMIC ACID 9H-FLUOREN-9-YLMETHYL ESTER]: greater than 50 µM; `Cc1ccc(NC(=O)[C@H](CCCCN)NC(=O)Nc2cccc3c2CCCC3)cc1` [Compound 78, (S)-6-AMINO-2-[3-(5,6,7,8-TETRAHYDRO-NAPHTHALEN-1-YL)-UREIDO]-HEXANOIC ACID P-TOLYLAMIDE]: greater than 50 µM.
Turning to `NCc1ccc(CNC(=O)[C@@H](NC(=O)Nc2ccc(OCc3ccccc3)cc2)c2ccccc2)cc1` [Compound 304, (S)-N-(4-AMINOMETHYL-BENZYL)-2-[3-(4-BENZYLOXY-PHENYL)-UREIDO]-2-PHENYL-ACETAMIDE], the IC50 fell in the range of 10 to 50 µM.
On to `NCCCC[C@H](NC(=O)Cn1cnc2c(NC(=O)c3ccccc3)ncnc21)C(=O)N(Cc1ccccc1)C1CCCCC1` [Compound 88, (S)-N-(9-{[5-AMINO-1-(BENZYL-CYCLOHEXYL-CARBAMOYL)-PENTYLCARBAMOYL]-METHYL}-9H-PURIN-6-YL)-BENZAMIDE], for which the IC50 was greater than 50 µM.
Compound `Cc1ccc(NC(=O)[C@H](CCCCN)NC(=O)CNCc2ccccc2F)cc1` [Compound 344, (S)-6-AMINO-2-[2-(2-FLUORO-BENZYLAMINO)-ACETYLAMINO]-HEXANOIC ACID P-TOLYLAMIDE] displayed an IC50 greater than 50 µM.
In the case of `Cc1ccc(NC(=O)[C@@H](CCCCN)NC(=O)OCC2c3ccccc3-c3ccccc32)cc1` [Compound 20, (S)-(5-AMINO-1-P-TOLYLCARBAMOYL-PENTYL)-CARBAMIC ACID 9H-FLUOREN-9-YLMETHYL ESTER], the IC50 fell in the range of 10 to 50 µM.
In the case of `C[C@@H](N)C(=O)Nc1ccc(CN(C(=O)c2ccco2)C2CCCCC2)cc1` [Compound 13, (R)-FURAN-2-CARBOXYLIC ACID [4-(2-AMINO-PROPIONYLAMINO)-BENZYL]-CYCLOHEXYL-AMIDE], the IC50 is greater than 50 µM.
The result for `NCCCC[C@H](NC(=O)OCC1c2ccccc2-c2ccccc21)C(=O)Nc1ccncc1` [Compound 232, (S)-[5-AMINO-1-(PYRIDIN-4-YLCARBAMOYL)-PENTYL]-CARBAMIC ACID 9H-FLUOREN-9-YLMETHYL ESTER] reads greater than 50 µM.
In turn, `Cc1ccc(NC(=O)C(CCCCN)NC(=O)CNCCc2c[nH]c3ccccc23)cc1` [Compound 335, (S)-6-AMINO-2-{2-[2-(1H-INDOL-3-YL)-ETHYLAMINO]-ACETYLAMINO}-HEXANOIC ACID P-TOLYLAMIDE] yielded an IC50 greater than 50 µM.
`NCCCC[C@H](NC(=O)Nc1ccc(OCc2ccccc2)cc1)C(=O)Nc1ccc(-n2ccnc2)cc1` [Compound 317, (S)-6-AMINO-2-[3-(4-BENZYLOXY-PHENYL)-UREIDO]-HEXANOIC ACID (4-IMIDAZOL-1-YL-PHENYL)-AMIDE] showed an IC50 greater than 50 µM.
